Test results published in patent US20100004156A1, “Small Compounds That Correct Protein Misfolding and Uses Thereof” (priority 2005, published 2010).
Where a SMILES comes first, the peptide text is derived from it. The star is where a group is joined. Cbz = O=C(OCc1ccccc1)*

Assays:
P23H opsin = conditions: previous studies, Noorwez et al. J Biol Chem 2003; cited from earlier work
mutant P23H opsin = assay: Recovery of correctly folded P23H rhodopsin from tetracycline-inducible HEK293 cells (immunoaffinity purification, absorbance at 500 nm); assay type: cell-based; conditions: for recovery of folded rhodopsins: in the presence of 11-cis-retinal, statement covers the rhodopsins of Table 1 (P23H and WT)
Procedure: (§1) Mutant P23H and wild-type opsins were expressed separately in tetracycline-inducible stable HEK293 cell lines in the presence of 11-cis retinal and various inhibitors. At forty-eight hours, the folded proteins were immununoaffinity purified and quantitated by UV-visible spectroscopy. The total amount of opsin protein was assayed at 280 nm. The amount of rhodopsin present in a biochemically functional conformation was assayed at 500 nm. Immunofluorescence microscopy was also performed to determine the cellular location of the proteins.
(§2) Stable wild-type and P23H opsin expressing HEK293 cell lines were generated in the Flp-In T-Rex system (Invitrogen). The BEK293 cells were grown in DMEM high glucose media supplemented with 10% fetal bovine serum, antibiotic-antimycotic solution, 5 μg/ml blasticidin and hygromycin at 37° C. in the presence of 8% CO2.
(§3) The opsin expressing HEK293 cell lines were allowed to reach confluence and were induced with 1 μg/ml tetracycline after a change of media. 10 μM 11-cis retinal was immediately added after induction under a red light, and inhibitors were added concurrently at the concentrations shown in Table 2 (below).
The plates were incubated for forty-eight hours. 10 uM of retinal was provided twenty-four hours after the first application, under red light.
Forty-eight hours after induction and inhibitor administration the HEK293 cells were harvested and rhodopsin was purified essentially as described in Noorwez et. al. (J Biol. Chem. 2004 Apr. 16; 279(16):16278-84). Spectrophotometric scans were taken in a Varian Cary 50 spectrophotometer.

wild-type opsin = assay: Recovery of wild-type rhodopsin from tetracycline-inducible HEK293 cells (immunoaffinity purification, absorbance at 500 nm); assay type: cell-based; conditions: 11-cis-retinal alone added to media of cells expressing wild-type opsin
Procedure: as §1, §2, §3
The plates were incubated for forty-eight hours. 10 uM of retinal was provided twenty-four hours after the first application, under red light. […]

CC1=C(/C=C/C(C)=C\C=C\C(C)=C\C=O)C(C)(C)CCC1 [9-cis-1-retinal]
in vivo folding and stabilization of P23H opsin (P23H opsin): promotes the in vivo folding and stabilization

CC(C)C[C@@H](C=O)NC(=O)[C@H](CC(C)C)NC(=O)[C@H](CC(C)C)NC(=O)OCc1ccccc1 [MG132, N-carbobenzoyl-Leu-Leu-Leu-CHO] (Cbz-Leu-Leu-Leu-aldehyde)
recovery of folded rhodopsins (mutant P23H opsin): increased the recovery

Cl.N [Ammonium chloride]
recovery of folded rhodopsins (mutant P23H opsin): increased the recovery

7-ring locked isomer of 11-cis-retinal
in vivo folding and stabilization of P23H opsin (P23H opsin): promotes the in vivo folding and stabilization

Cn1cnc(N)c2ncnc1-2 [3-methyladenine]
recovery of folded rhodopsins (mutant P23H opsin): increased the recovery

O[C@H]1[C@H](O)[C@@H](O)CN2CC[C@H](O)[C@H]12 [Castanospermine]
recovery of folded rhodopsins (mutant P23H opsin): increased the recovery

C[C@H]1CCC/C=C/[C@@H]2C[C@H](O)C[C@H]2[C@H](O)/C=C/C(=O)O1 [Brefeldin A]
increase in the yield of P23H rhodopsin (mutant P23H opsin; HEK293 cells, inhibitor added at induction with 11-cis-retinal, FIG. 4A): 2 fold
recovery of folded rhodopsins (mutant P23H opsin): increased the recovery

CC1=C(/C=C/C(C)=C/C=C/C(C)=C/C=O)C(C)(C)CCC1 [11-cis-retinal]
increase in rhodopsin yield (mutant P23H opsin; 11-cis-retinal alone added to culture medium of cells expressing the P23H mutant): 5-6 fold
in vivo folding and stabilization of P23H opsin (P23H opsin): promotes the in vivo folding and stabilization
effect on rhodopsin yield (wild-type opsin): no effect
